In ChEMBL document CHEMBL4482309, “Discovery of the first selective c5a2 receptor (c5l2/c5ar2) ligands” (2017):
The source made the active and inactive calls. The calls are words filed in the database; no cut-off is given here.

Tests used:
[1] = biological target: C5a anaphylatoxin chemotactic receptor 2 (Homo sapiens) (UniProt Q9P296); assay: Displacement of [125I]-C5a from C5a2 receptor (unknown origin) expressed in Flp-In CHO cell membranes at 100 uM incubated for 1 hr by microbeta scintillation counting assay
[2] = biological target: C5a anaphylatoxin chemotactic receptor 2 (Homo sapiens) (UniProt Q9P296); assay: Displacement of [125I]-C5a from C5a2 receptor (unknown origin) expressed in Flp-In CHO cell membranes incubated for 1 hr by microbeta scintillation counting assay
[3] = biological target: T1, C5a anaphylatoxin chemotactic receptor 1 (Homo sapiens) (UniProt P21730); assay: Displacement of [125I]-C5a from C5a1 receptor (unknown origin) expressed in Flp-In CHO cell membranes incubated for 1 hr by microbeta scintillation counting assay
T1 sequence (whole entry): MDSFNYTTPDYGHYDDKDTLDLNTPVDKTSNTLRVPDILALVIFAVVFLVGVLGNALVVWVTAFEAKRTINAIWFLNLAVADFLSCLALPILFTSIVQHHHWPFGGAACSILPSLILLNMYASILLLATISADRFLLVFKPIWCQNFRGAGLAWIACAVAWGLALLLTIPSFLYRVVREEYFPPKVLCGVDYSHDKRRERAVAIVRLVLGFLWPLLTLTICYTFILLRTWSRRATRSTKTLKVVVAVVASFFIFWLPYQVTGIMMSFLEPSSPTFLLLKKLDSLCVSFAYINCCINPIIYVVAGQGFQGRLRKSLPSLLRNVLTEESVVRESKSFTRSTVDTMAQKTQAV

[4] = biological target: C5a anaphylatoxin chemotactic receptor 2 (Homo sapiens) (UniProt Q9P296); assay: Partial agonist activity at C5a2 receptor (unknown origin) expressed in HEK293 cells assessed as induction of beta-arrestin-2 recruitment incubated for 1 hr by BRET assay; format: cell-based
[5] = biological target: C5a anaphylatoxin chemotactic receptor 2 (Homo sapiens) (UniProt Q9P296); assay: Partial agonist activity at C5a2 receptor (unknown origin) expressed in HEK293 cells assessed as induction of beta-arrestin-2 recruitment incubated for 1 hr by BRET assay relative to C5a; format: cell-based
[6] = biological target: T1, C5a anaphylatoxin chemotactic receptor 1 (Homo sapiens); assay: Agonist activity at C5a1 receptor (unknown origin) expressed in HEK293 cells assessed as induction of beta-arrestin-2 recruitment at 100 uM incubated for 1 hr by BRET assay; format: cell-based
[7] = biological target: C5a anaphylatoxin chemotactic receptor 2 (Homo sapiens) (UniProt Q9P296); assay: Partial agonist activity at human C5a2 receptor assessed as induction of beta-arrestin-2 recruitment by DiscoverX Path Hunter kit based assay
[8] = biological target: T1, C5a anaphylatoxin chemotactic receptor 1 (Homo sapiens); assay: Partial agonist activity at human C5a1 receptor assessed as induction of beta-arrestin-2 recruitment by DiscoverX Path Hunter kit based assay
[9] = biological target: C5a anaphylatoxin chemotactic receptor 1/2 (Homo sapiens) (UniProt P21730+Q9P296); assay: Induction of C5a1-C5a2 heteromer formation (unknown origin) expressed in HEK293 cells at 100 uM by BRET assay; format: cell-based
[10] = biological target: C5a anaphylatoxin chemotactic receptor 2 (Homo sapiens) (UniProt Q9P296); assay: Agonist activity at C5a2 receptor in HMDM assessed as inhibition of LPS-induced TNFalpha release at 0.1 to 100 uM by ELISA
[11] = biological target: C5a anaphylatoxin chemotactic receptor 2 (Homo sapiens) (UniProt Q9P296); assay: Agonist activity at C5a2 receptor in LPS-induced IHMDM assessed as effect on […] release at 0.1 to 100 uM by ELISA
[12] = biological target: C5a anaphylatoxin chemotactic receptor 2 (Homo sapiens) (UniProt Q9P296); assay: Agonist activity at C5a2 receptor in HMDM assessed as inhibition of LPS-induced IL-6 release at 100 uM by ELISA
[13] = biological target: C5a anaphylatoxin chemotactic receptor 2 (Homo sapiens) (UniProt Q9P296); assay: Agonist activity at C5a2 receptor in HMDM assessed as inhibition of LPS-induced TNFalpha release at 100 uM in presence of C5a1 antagonist PMX53 by ELISA
[14] = biological target: T2, Mitogen-activated protein kinase; ERK1/ERK2 (Homo sapiens) (UniProt P27361+P28482); assay: Induction of ERK1/2 phosphorylation in HMDM at 100 uM incubated for 30 mins; format: protein assay
[15] = biological target: T2, Mitogen-activated protein kinase; ERK1/ERK2 (Homo sapiens); assay: Agonist activity at C5a2 receptor in HMDM assessed as inhibition of C5a-induced induction of ERK1/2 phosphorylation in HMDM at 100 uM pre-incubated for 30 mins before C5a addition and measured after 10 mins
[16] = biological target: C5a anaphylatoxin chemotactic receptor 2 (Homo sapiens) (UniProt Q9P296); assay: Agonist activity at C5a2 receptor in HMDM assessed as inhibition of LPS-induced IL-6 release at 10 to 100 uM by ELISA
Mus musculus [17] = assay: Inhibition of C5a-induced neutrophil mobilization in iv dosed wild type mouse; format: functional, organism-based
Mus musculus [18] = assay: Inhibition of C5a-induced neutrophil mobilization in iv dosed C5aR2 (-/-) mouse; format: functional, organism-based

T2 sequence (P27361 whole entry, looked up): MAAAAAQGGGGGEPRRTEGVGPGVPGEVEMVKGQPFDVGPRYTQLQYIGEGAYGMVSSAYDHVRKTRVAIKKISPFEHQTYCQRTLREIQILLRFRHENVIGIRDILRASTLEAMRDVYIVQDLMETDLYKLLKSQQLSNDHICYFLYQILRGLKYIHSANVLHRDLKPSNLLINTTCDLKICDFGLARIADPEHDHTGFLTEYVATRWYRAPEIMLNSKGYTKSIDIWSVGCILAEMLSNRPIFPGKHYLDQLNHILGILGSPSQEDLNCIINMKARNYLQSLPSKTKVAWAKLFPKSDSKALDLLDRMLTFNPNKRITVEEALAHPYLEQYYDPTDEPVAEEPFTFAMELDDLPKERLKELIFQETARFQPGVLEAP
T2 sequence (P28482 whole entry, looked up): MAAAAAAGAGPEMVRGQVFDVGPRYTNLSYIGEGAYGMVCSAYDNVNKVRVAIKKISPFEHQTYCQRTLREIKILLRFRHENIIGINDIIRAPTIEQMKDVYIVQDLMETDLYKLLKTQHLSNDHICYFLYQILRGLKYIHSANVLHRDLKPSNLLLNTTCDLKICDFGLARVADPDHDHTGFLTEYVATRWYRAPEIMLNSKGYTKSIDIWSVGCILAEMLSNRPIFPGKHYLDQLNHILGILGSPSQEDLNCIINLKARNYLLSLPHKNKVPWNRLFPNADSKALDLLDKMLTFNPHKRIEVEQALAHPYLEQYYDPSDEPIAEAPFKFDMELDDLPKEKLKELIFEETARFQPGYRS
Chain of C5a anaphylatoxin chemotactic receptor 2 (Homo sapiens) (Q9P296 whole entry): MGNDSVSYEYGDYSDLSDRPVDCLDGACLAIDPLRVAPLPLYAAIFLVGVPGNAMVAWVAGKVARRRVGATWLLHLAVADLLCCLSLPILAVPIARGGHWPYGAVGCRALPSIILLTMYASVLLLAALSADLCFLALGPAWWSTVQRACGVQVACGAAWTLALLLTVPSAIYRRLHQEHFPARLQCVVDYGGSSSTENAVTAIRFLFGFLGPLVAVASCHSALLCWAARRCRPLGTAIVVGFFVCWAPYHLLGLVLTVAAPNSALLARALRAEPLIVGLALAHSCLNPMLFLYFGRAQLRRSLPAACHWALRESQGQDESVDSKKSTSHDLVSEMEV

Activity [14] | inhibition [15] | Substance | inhibition [1] | inhibition [2] | inhibition [3] | Activity [4] | Activity [5] | Activity [6] | Activity [7] | Activity [8] | Activity [9] | inhibition [10] | Activity [11] | inhibition [12] | inhibition [13] | inhibition [16] | inhibition (Mus musculus [17]) | inhibition (Mus musculus [18])
inactive | Active | Ac-LIRLWR-OH | Active | Dose-dependent effect | Dose-dependent effect | Dose-dependent effect | 52.9% | inactive | Active | inactive | inactive | inactive | inactive | Active | inactive | – | – | –
inactive | Active | Ac-RHYPYWR-OH | Active | Dose-dependent effect | Dose-dependent effect | Dose-dependent effect | 28.8% | inactive | Active | inactive | inactive | inactive | inactive | – | inactive | Active | Active | inactive
